# Reference: patent US10710978B2, “STK4 inhibitors for treatment of hematologic malignancies” (Dana-Farber Cancer Institute, Inc., priority 2015, dated 2020)
# Like-named read-outs stand apart in the source and are kept apart here.
# What was measured:
# Assay in all cases: KiNativ assay
# Type in all cases: binding
# [1] = test system: CaMK2a, CaMK2b, CaMK2d, CaMK2g; details: H929 live cell
# Protocol: (§1) Biochemical IC50s of the compounds of the present disclosure against various kinases were measured in a KiNativ assay. Compounds were screened in duplicate at 10 μM in H929 live cell. IC50 was measured via Mass spectroscopy (MS).
# IRAK4 = IRAK4 (Homo sapiens (Human), UniProt Q9NWZ3); details: H929 live cell
# Protocol: as §1
# PEK = PEK (Homo sapiens (Human), UniProt Q9NZJ5); details: H929 live cell
# Protocol: as §1
# LYN = LYN (Homo sapiens (Human), UniProt P07948); details: H929 live cell
# Protocol: as §1
# MSK1 domain1 = MSK1 domain1 (Homo sapiens (Human), UniProt O75582); details: H929 live cell
# Protocol: as §1
# MAP3K2, MAP3K3 = details: H929 live cell
# Protocol: as §1
# MAP2K3 = MAP2K3 (Homo sapiens (Human), UniProt P46734); details: H929 live cell
# Protocol: as §1
# BARK1 = BARK1 (Homo sapiens (Human), UniProt P25098); details: H929 live cell
# Protocol: as §1
# SGK3 = SGK3 (Homo sapiens (Human), UniProt Q96BR1); details: H929 live cell
# Protocol: as §1
# p70S6K = p70S6K (Homo sapiens (Human), UniProt P23443); details: H929 live cell
# Protocol: as §1
# STLK5 = STLK5 (Homo sapiens (Human), UniProt Q7RTN6); details: H929 live cell
# Protocol: as §1
# PKCi = PKCi (Homo sapiens (Human), UniProt P41743); details: H929 live cell
# Protocol: as §1
# MAP2K1, MAP2K2 = details: 10 μM, H929 live cell
# Protocol: as §1
# RSK1 domain2 = RSK1 domain2 (Homo sapiens (Human), UniProt Q15418); details: H929 live cell
# Protocol: as §1
# LKB1 = LKB1 (Homo sapiens (Human), UniProt Q15831); details: H929 live cell
# Protocol: as §1
# MSK2 domain1 = MSK2 domain1 (Homo sapiens (Human), UniProt O75676); details: H929 live cell
# Protocol: as §1
# CDK5 = CDK5 (Homo sapiens (Human), UniProt Q00535); details: H929 live cell
# Protocol: as §1
# MLK3 = MLK3 (Homo sapiens (Human), UniProt Q16584); details: H929 live cell
# Protocol: as §1
# NEK3 = NEK3 (Homo sapiens (Human), UniProt P51956); details: H929 live cell
# Protocol: as §1
# MAP2K6 = MAP2K6 (Homo sapiens (Human), UniProt P52564); details: H929 live cell
# Protocol: as §1
# MARK2, MARK3 = details: H929 live cell
# Protocol: as §1
# p38d, p38g = details: H929 live cell
# Protocol: as §1
# GCN2 domain2 = GCN2 domain2 (Homo sapiens (Human), UniProt Q9P2K8); details: H929 live cell
# Protocol: as §1
# AurA = AurA (Homo sapiens (Human), UniProt O14965); details: H929 live cell
# Protocol: as §1
# CaMK1d = CaMK1d (Homo sapiens (Human), UniProt Q8IU85); details: H929 live cell
# Protocol: as §1
# NuaK2 = NuaK2 (Homo sapiens (Human), UniProt Q9H093); details: H929 live cell
# Protocol: as §1
# PRPK = PRPK (Homo sapiens (Human), UniProt Q96S44); details: H929 live cell
# Protocol: as §1
# TLK1 = TLK1 (Homo sapiens (Human), UniProt Q9UKI8); details: H929 live cell
# Protocol: as §1
# MAST3 = MAST3 (Homo sapiens (Human), UniProt O60307); details: H929 live cell
# Protocol: as §1
# FRAP = FRAP (Homo sapiens (Human), UniProt P42345); details: H929 live cell
# Protocol: as §1
# NEK6, NEK7 = details: H929 live cell
# Protocol: as §1
# [2] = test system: ZC1/HGK, ZC2/TNIK, ZC3/MINK; details: H929 live cell
# Protocol: as §1
# PKR = PKR (Homo sapiens (Human), UniProt P19525); details: H929 live cell
# Protocol: as §1
# JAK1 domain1 = JAK1 domain1 (Homo sapiens (Human), UniProt P23458); details: H929 live cell
# Protocol: as §1
# Chain of AurA (O14965 whole entry): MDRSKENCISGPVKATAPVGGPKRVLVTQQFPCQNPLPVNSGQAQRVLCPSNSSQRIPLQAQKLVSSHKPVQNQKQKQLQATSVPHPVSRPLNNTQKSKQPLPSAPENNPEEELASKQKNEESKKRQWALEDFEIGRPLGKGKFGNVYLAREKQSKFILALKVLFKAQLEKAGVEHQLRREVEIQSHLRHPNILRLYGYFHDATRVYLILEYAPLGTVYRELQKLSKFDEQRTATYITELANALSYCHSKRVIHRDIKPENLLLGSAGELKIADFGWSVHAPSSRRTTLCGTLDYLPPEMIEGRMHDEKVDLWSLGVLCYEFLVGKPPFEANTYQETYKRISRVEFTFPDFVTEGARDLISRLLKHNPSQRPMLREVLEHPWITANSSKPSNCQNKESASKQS
# Chain of CDK5 (Q00535 whole entry): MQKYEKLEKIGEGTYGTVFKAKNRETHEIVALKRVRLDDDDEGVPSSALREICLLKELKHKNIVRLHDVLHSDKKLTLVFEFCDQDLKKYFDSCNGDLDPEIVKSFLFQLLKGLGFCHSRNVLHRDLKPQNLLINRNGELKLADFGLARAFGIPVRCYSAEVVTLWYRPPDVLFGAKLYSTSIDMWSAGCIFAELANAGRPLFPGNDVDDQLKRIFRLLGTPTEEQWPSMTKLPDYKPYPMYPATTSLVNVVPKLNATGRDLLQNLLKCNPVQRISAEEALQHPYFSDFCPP
# Chain of BARK1 (P25098 whole entry): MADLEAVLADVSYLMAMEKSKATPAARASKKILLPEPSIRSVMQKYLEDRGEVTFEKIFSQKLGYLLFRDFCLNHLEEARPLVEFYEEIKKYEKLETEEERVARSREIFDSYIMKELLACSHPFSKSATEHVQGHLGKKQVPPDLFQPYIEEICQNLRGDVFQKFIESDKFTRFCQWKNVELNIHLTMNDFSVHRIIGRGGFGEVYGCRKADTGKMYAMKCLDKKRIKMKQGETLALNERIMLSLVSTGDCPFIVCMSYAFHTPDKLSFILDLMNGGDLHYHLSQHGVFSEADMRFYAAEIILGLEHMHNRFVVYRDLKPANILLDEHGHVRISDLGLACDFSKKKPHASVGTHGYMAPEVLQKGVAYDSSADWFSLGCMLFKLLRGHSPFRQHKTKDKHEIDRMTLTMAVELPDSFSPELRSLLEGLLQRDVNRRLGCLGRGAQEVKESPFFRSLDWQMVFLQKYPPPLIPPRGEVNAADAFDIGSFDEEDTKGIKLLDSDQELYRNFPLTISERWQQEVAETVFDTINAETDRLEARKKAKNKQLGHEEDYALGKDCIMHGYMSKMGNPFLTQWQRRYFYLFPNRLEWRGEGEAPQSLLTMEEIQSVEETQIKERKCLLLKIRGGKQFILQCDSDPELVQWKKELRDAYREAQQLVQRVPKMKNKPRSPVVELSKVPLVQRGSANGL
# Chain of NEK3 (P51956 whole entry): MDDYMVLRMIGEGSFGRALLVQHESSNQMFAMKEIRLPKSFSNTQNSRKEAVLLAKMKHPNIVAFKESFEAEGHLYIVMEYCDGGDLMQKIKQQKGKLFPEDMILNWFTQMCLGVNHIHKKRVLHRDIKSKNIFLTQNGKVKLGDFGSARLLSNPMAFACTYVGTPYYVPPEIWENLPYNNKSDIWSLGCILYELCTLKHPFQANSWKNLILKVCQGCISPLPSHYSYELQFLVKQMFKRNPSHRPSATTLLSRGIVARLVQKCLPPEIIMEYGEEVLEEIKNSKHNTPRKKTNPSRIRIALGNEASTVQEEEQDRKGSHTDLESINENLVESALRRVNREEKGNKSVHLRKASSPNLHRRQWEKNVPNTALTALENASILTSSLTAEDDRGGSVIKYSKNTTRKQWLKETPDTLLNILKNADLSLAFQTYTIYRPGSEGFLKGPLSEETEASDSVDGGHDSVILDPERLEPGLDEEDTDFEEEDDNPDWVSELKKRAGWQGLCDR
# Chain of MAST3 (O60307 whole entry): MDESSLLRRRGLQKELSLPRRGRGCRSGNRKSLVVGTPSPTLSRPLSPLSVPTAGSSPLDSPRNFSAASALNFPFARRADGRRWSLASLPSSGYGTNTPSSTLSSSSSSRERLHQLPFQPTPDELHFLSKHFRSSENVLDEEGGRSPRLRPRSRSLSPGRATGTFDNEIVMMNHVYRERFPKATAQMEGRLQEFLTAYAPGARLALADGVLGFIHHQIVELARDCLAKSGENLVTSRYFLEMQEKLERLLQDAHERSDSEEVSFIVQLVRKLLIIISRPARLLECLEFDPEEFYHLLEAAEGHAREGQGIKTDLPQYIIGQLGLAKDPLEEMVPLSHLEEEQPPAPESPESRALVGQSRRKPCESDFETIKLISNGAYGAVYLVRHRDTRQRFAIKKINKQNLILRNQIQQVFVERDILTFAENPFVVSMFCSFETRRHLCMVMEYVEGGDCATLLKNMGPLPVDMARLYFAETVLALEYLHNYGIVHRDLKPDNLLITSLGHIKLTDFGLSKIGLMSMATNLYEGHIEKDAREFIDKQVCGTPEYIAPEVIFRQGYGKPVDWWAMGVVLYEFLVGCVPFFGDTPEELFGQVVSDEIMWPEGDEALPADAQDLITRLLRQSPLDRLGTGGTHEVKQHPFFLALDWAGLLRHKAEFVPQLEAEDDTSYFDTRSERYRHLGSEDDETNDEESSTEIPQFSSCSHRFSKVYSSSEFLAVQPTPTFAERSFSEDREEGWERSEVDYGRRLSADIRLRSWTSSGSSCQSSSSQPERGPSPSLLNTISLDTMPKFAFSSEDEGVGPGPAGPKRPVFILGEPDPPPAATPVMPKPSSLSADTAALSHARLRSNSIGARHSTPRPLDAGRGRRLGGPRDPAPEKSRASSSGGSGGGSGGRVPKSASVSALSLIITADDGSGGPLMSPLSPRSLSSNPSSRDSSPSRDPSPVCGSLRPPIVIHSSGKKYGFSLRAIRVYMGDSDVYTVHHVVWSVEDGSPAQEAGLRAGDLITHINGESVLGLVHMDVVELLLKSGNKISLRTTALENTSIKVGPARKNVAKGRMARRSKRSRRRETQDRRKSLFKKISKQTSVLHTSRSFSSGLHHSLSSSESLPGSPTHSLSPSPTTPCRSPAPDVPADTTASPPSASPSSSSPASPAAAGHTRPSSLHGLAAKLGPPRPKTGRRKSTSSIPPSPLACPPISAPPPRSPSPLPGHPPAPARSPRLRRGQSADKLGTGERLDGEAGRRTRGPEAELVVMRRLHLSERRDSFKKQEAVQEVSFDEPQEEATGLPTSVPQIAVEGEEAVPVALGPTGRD
# Chain of CaMK1d (Q8IU85 whole entry): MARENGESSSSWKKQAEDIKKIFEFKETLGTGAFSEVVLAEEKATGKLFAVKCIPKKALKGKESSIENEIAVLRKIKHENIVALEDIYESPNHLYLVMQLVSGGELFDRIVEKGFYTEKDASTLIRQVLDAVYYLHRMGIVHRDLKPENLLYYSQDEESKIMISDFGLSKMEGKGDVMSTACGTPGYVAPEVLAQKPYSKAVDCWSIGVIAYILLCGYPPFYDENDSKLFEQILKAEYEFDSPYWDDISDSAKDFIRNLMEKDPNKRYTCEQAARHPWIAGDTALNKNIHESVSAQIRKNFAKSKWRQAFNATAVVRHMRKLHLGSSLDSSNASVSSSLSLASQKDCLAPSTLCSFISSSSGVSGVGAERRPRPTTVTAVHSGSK
# Chain of PRPK (Q96S44 whole entry): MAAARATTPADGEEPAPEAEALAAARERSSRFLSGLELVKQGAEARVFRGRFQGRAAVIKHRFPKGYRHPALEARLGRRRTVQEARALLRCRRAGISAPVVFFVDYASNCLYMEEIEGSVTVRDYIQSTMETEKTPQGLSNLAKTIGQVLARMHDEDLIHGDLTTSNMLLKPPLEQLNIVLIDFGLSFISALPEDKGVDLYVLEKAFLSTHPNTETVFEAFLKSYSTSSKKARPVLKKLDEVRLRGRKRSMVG
# Chain of STLK5 (Q7RTN6 whole entry): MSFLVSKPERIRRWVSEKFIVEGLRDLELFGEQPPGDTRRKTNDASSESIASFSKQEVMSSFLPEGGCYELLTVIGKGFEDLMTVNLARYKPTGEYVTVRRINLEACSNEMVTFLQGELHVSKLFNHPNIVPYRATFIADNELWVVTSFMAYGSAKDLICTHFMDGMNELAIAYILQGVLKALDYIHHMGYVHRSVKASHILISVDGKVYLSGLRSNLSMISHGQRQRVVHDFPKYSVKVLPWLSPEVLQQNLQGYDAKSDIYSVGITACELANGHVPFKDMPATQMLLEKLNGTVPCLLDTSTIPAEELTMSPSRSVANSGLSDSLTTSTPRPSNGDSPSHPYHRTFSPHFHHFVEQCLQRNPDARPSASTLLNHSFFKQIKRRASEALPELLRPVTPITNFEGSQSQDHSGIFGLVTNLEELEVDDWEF
# Chain of LYN (P07948 whole entry): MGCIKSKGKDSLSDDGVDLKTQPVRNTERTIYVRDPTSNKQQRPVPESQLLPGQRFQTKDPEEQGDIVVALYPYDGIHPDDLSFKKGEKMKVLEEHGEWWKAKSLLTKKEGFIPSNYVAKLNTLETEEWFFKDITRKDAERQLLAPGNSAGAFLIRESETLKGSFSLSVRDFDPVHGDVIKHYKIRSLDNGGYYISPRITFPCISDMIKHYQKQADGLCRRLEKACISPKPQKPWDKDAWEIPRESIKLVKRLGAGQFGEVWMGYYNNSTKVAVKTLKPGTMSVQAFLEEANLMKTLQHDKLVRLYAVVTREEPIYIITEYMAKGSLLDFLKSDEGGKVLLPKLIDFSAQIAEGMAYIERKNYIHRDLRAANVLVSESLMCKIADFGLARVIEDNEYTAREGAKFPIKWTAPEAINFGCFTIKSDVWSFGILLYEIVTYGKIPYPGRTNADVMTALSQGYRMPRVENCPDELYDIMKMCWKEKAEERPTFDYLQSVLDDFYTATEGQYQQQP
structure (smiles),measurement,setting,value
"Nc1ncc(-c2cccc3ncsc23)cc1-c1ccc2c(c1)CCNC2=O [Compound I-13, 6-(2-amino-5-(benzo[d]thiazol-7-yl)pyridin-3-yl)-3,4-dihydroisoquinolin-1(2H)-one]",% inhibition (range),[1]; 10 μM,0.0%
same,inhibition (10 μM),[1],−4.1%
same,inhibition at 10 µM,IRAK4; read-out: % inhibition (range),0%
same,inhibition at 10 µM,IRAK4; read-out: inhibition (10 μM),-6.4%
same,inhibition at 10 µM,PEK; read-out: % inhibition (range),0%
same,inhibition at 10 µM,PEK; read-out: inhibition (10 μM),-40.8%
same,inhibition at 10 µM,LYN; read-out: % inhibition (range),0%
same,inhibition at 10 µM,LYN; read-out: inhibition (10 μM),-41.4%
same,inhibition at 10 µM,MSK1 domain1; read-out: % inhibition (range),0%
same,inhibition at 10 µM,MSK1 domain1; read-out: inhibition (10 μM),9.5%
same,% inhibition (range),"MAP3K2, MAP3K3; 10 μM",0.0%
same,inhibition (10 μM),"MAP3K2, MAP3K3",0.2%
same,inhibition at 10 µM,MAP2K3; read-out: % inhibition (range),0%
same,inhibition at 10 µM,MAP2K3; read-out: inhibition (10 μM),1.1%
same,inhibition at 10 µM,BARK1; read-out: % inhibition (range),0%
same,inhibition at 10 µM,BARK1; read-out: inhibition (10 μM),21.8%
same,inhibition at 10 µM,SGK3; read-out: % inhibition (range),0%
same,inhibition at 10 µM,SGK3; read-out: inhibition (10 μM),13.1%
same,inhibition at 10 µM,p70S6K; read-out: % inhibition (range),0%
same,inhibition at 10 µM,p70S6K; read-out: inhibition (10 μM),-14.3%
same,inhibition at 10 µM,STLK5; read-out: % inhibition (range),0%
same,inhibition at 10 µM,STLK5; read-out: inhibition (10 μM),9.9%
same,inhibition at 10 µM,PKCi; read-out: % inhibition (range),0%
same,inhibition at 10 µM,PKCi; read-out: inhibition (10 μM),21.4%
same,% inhibition (range),"MAP2K1, MAP2K2",0.0%
same,inhibition at 10 µM,RSK1 domain2; read-out: % inhibition (range),0%
same,inhibition at 10 µM,RSK1 domain2; read-out: inhibition (10 μM),-7.7%
same,inhibition at 10 µM,LKB1; read-out: % inhibition (range),0%
same,inhibition at 10 µM,LKB1; read-out: inhibition (10 μM),4.3%
same,inhibition at 10 µM,MSK2 domain1; read-out: % inhibition (range),0%
same,inhibition at 10 µM,MSK2 domain1; read-out: inhibition (10 μM),-6.1%
same,inhibition at 10 µM,CDK5; read-out: % inhibition (range),0%
same,inhibition at 10 µM,CDK5; read-out: inhibition (10 μM),20%
same,inhibition at 10 µM,MLK3; read-out: % inhibition (range),0%
same,inhibition at 10 µM,MLK3; read-out: inhibition (10 μM),-3.9%
same,inhibition at 10 µM,NEK3; read-out: % inhibition (range),0%
same,inhibition at 10 µM,NEK3; read-out: inhibition (10 μM),5.3%
same,inhibition at 10 µM,MAP2K6; read-out: % inhibition (range),0%
same,inhibition at 10 µM,MAP2K6; read-out: inhibition (10 μM),4.3%
same,% inhibition (range),"MARK2, MARK3; 10 μM",0.0%
same,inhibition (10 μM),"MARK2, MARK3",14.8%
same,% inhibition (range),"p38d, p38g; 10 μM",0.0%
same,inhibition (10 μM),"p38d, p38g",−43.7%
same,inhibition at 10 µM,GCN2 domain2; read-out: % inhibition (range),0%
same,inhibition at 10 µM,GCN2 domain2; read-out: inhibition (10 μM),13.5%
same,inhibition (10 μM),AurA,14.7%
same,inhibition at 10 µM,AurA; read-out: % inhibition (range),0%
same,inhibition at 10 µM,AurA; read-out: inhibition (10 μM),17.4%
same,inhibition at 10 µM,CaMK1d; read-out: % inhibition (range),0%
same,inhibition at 10 µM,CaMK1d; read-out: inhibition (10 μM),16.2%
same,inhibition at 10 µM,NuaK2; read-out: % inhibition (range),50 to 75%
same,inhibition at 10 µM,NuaK2; read-out: inhibition (10 μM),53.9%
same,inhibition at 10 µM,PRPK; read-out: % inhibition (range),0%
same,inhibition at 10 µM,PRPK; read-out: inhibition (10 μM),-6.4%
same,inhibition at 10 µM,TLK1; read-out: % inhibition (range),0%
same,inhibition at 10 µM,TLK1; read-out: inhibition (10 μM),8.6%
same,inhibition at 10 µM,MAST3; read-out: % inhibition (range),0%
same,inhibition at 10 µM,MAST3; read-out: inhibition (10 μM),22%
same,inhibition at 10 µM,FRAP; read-out: % inhibition (range),0%
same,inhibition at 10 µM,FRAP; read-out: inhibition (10 μM),32.5%
same,% inhibition (range),"NEK6, NEK7; 10 μM",0.0%
same,inhibition (10 μM),"NEK6, NEK7",−20.1%
same,% inhibition (range),[2]; 10 μM,>90%
same,inhibition (10 μM),[2],97.0%
same,inhibition at 10 µM,PKR; read-out: % inhibition (range),0%
same,inhibition at 10 µM,PKR; read-out: inhibition (10 μM),-21.7%
same,inhibition at 10 µM,JAK1 domain1; read-out: % inhibition (range),0%
same,inhibition at 10 µM,JAK1 domain1; read-out: inhibition (10 μM),-22.4%
